According to patent US20220267310A1, “QUINAZOLINE AND CINNOLINE DERIVATIVES AS DNA-PK INHIBITOR” (MEDSHINE DISCOVERY INC., priority 2019, published 2022):
Where “and” joins values, the source holds several entries; their conditions need not be identical. Identical values can stand only once. Like-named read-outs stand apart in the source and are kept apart here.

Tests used:
[1] = target: T1, PI3K (p110α/p85α) (Homo sapiens, UniProt P42336); test: PI3K (p110α/p85α) kinase inhibitory activity (HTRF); type: biochemical
T1 construct: Eurofins Pharma Discovery Service (contract assay)
T1 sequence (P42336 whole entry, species assumed): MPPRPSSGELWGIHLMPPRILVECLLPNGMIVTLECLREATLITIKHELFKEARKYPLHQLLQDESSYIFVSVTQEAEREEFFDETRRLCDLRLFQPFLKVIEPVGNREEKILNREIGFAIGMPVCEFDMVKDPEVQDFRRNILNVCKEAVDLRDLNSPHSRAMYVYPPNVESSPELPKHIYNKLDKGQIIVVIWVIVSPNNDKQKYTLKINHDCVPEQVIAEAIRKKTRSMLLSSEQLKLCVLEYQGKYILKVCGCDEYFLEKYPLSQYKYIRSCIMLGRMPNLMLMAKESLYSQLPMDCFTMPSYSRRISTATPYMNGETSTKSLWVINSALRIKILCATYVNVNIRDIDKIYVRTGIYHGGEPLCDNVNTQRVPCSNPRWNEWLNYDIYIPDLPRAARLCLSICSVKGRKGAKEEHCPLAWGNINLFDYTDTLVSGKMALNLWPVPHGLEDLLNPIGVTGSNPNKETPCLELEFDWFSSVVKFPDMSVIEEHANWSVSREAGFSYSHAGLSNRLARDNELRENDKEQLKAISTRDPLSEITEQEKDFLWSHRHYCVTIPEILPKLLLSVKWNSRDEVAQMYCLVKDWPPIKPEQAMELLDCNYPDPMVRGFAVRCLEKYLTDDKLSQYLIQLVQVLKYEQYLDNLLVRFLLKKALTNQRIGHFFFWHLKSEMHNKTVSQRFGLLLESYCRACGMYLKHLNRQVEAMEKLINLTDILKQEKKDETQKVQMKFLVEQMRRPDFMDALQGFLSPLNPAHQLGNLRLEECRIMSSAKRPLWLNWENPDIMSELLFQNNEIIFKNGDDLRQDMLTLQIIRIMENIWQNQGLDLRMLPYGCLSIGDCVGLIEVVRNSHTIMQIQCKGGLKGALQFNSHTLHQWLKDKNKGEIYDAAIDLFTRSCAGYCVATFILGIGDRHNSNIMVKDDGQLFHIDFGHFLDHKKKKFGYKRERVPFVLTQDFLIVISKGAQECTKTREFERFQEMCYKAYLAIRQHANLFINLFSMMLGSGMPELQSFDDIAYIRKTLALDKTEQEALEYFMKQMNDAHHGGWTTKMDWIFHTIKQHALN
T1 sequence (P27986 whole entry partner, species assumed): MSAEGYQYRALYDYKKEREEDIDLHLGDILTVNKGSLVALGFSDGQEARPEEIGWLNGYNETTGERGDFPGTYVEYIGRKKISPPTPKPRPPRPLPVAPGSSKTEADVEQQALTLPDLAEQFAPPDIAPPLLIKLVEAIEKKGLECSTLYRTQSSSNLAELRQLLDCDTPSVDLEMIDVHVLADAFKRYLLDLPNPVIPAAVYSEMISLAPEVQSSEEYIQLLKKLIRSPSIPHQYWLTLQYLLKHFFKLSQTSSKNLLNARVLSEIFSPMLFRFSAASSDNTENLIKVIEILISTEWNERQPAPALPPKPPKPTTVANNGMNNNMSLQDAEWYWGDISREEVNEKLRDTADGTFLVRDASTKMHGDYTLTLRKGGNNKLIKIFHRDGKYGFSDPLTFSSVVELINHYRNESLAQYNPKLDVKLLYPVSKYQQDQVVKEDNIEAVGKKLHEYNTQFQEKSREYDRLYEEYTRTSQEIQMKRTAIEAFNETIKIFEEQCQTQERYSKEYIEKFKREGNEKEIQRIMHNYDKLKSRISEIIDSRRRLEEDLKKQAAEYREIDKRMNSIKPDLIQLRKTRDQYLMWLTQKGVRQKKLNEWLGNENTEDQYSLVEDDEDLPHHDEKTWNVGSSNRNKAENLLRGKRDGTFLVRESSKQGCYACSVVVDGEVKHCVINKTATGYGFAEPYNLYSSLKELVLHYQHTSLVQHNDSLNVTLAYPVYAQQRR
Description: (§1) This experiment was tested at Eurofins Pharma Discovery Service, Reaction Biology Corp. (RBC)
(§2) […] DNA-PK: Mg/ATP; GST-cMyc-p53; EDTA; Ser15 antibody; ATP: 10 μM; biotinylated phosphatidylinositol-3,4,5-triphosphate; GST label GRP1 PH domain; streptavidin and phycocyanin; europium-labelled monoclonal antibody against GST.
PI3K (p110α/p85α) was incubated in a determination buffer containing phosphatidylinositol 4,5-diphosphate and Mg/ATP (density as required). The reaction was initiated by adding an ATP solution. After incubating at room temperature for 30 min, a termination solution containing EDTA and biotinylated phosphatidylinositol-3,4,5-triphosphate was added to terminate the reaction. Finally, a detection buffer (containing labeled anti-GST monoclonal antibody, PH domain of GRP1 with GST label and streptavidin and phycyanin and […]) was added. Then, the board was read in time-resolved fluorescence mode, and an HTRF signal was measured according to the formula HTRF=10000×(Em665 nm/Em620 nm).

[2] = target: T2, PI3K (p110σ/p85α) (Homo sapiens, UniProt O00329); test: PI3K (p110σ/p85α) kinase inhibitory activity (HTRF); type: biochemical
T2 construct: Eurofins Pharma Discovery Service (contract assay)
T2 sequence (O00329 whole entry): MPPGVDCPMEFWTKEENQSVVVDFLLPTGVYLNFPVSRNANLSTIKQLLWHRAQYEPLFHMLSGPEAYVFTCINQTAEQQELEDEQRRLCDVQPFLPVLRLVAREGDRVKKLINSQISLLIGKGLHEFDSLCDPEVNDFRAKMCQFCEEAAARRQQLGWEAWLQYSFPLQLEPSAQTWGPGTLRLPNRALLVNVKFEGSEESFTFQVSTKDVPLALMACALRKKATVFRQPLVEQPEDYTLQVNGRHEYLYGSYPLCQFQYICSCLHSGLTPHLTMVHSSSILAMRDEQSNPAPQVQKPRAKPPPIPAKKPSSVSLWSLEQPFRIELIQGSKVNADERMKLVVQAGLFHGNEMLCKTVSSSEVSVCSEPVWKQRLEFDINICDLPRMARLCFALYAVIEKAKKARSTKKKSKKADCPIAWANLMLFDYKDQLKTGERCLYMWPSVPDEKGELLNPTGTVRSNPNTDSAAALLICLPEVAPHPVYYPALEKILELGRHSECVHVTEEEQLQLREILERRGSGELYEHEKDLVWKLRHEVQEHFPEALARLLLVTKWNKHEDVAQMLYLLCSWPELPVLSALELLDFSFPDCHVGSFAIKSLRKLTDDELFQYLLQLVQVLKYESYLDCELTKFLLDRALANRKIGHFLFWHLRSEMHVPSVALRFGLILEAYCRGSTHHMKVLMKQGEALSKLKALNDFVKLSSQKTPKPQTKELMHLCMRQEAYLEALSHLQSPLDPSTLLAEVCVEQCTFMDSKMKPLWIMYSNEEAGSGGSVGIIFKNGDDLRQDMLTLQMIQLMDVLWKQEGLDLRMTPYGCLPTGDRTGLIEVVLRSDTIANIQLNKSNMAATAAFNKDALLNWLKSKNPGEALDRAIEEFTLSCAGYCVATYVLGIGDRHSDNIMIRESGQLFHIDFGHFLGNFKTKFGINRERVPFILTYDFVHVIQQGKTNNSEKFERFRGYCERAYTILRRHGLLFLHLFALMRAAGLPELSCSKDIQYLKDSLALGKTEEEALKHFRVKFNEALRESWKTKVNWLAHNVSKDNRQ
T2 sequence (P27986 whole entry partner): as the sequence (P27986 whole entry partner, species assumed) above

[3] = target: T3, DNA-PK (h) (Homo sapiens, UniProt P78527); test: DNA-PK kinase inhibitory activity (HTRF, Eurofins); type: biochemical; conditions: ATP: 10 μM
T3 construct: Eurofins Pharma Discovery Service (contract assay)
Description: as §1, §2
DNA-PK (h) was incubated in a determination buffer containing 50 nM GST-cMyc-p53 and Mg/ATP (density as required). The reaction was initiated by adding a mixture of Mg/ATP. After incubating at room temperature for 30 min, a termination solution containing EDTA was added to terminate the reaction. Finally, a detection buffer (containing labeled anti-GST monoclonal antibody and europium-labeled anti-phosphate Ser15 antibody against phosphorylated p53) was added. Then, the board was read in time-resolved fluorescence mode, and a Homogeneous Time Resolved Fluorescence (HTRF) signal was measured according to the formula HTRF=10000×(Em665 nm/Em620 nm).

[4] = test system: human small cell lung cancer NCI-H69 cell subcutaneous xenograft tumor; test: NCI-H69 subcutaneous xenograft, combination with etoposide, 22-day experiment (Table 7); type: in vivo, BALB/c nude mice
Description: Experiment example 3: in vivo pharmacodynamics of human small cell lung cancer NCI-H69 cell subcutaneous xenograft tumor BALB/c nude mouse model:
Experimental animals: Female BALB/c nude mice, 6-8 weeks old, weighing 15-22 grams; supplier: Shanghai Linchang Biotechnology Co., LTD. (Linchang, Shanghai)
Human small cell lung cancer NCI-H69 cells (ATCC, item number: HTB-119 and ECACC-95111733) were cultured in vitro in a culture condition of RPMI-1640 medium with 10% fetal bovine serum, 100 U/mL penicillin and 100 μg/mL streptomycin, incubated at 37° C. and 5% CO2. Conventional passage was carried out twice a week. When cell saturation was 80%-90% and the number reaches the requirement, cells were collected, counted and inoculated.
0.2 mL (10×10^6) NCI-H69 cells (with matrix glue, and volume ratio of 1:1) were subcutaneously inoculated into a right back of each mouse, and group administration was initiated when the average tumor volume reaches about 110-120 mm^3.
The tested compound was prepared as a 5 mg/mL clarified solution with 10% DMSO+50% polyethylene glycol 400+40% water as the solvent.
The experimental indicators refers to study whether tumor growth was inhibited, delayed, or cured. Tumor diameter was measured twice a week with a vernier caliper. The calculation formula of the tumor volume was V=0.5a×b^2, and a and b represent the long diameter and short diameter of the tumor, respectively.
The antitumor efficacy of the compound was evaluated by TGI (%) or relative tumor proliferation rate T/C (%). TGI (%) reflects the tumor growth inhibition rate. The calculation of TGI (%): TGI (%)=[1−(average tumor volume at the end of administration of a certain treatment group−average tumor volume at the beginning of administration of the treatment group)/(average tumor volume at the end of treatment in solvent control group−average tumor volume at the beginning of treatment in solvent control group)]×control group.
Relative tumor proliferation rate T/C (%): the calculation formula was as follows: T/C %=[…] TRTV/CRTV group (TRTV: treatment group RTV; CRTV: negative control group RTV). According to results of tumor measurement, Relative Tumor Volume (RTV) was calculated by the formula RTV=Vt/V0, where V0 was the average tumor volume measured in group administration (i.e., d0), and Vt was the average tumor volume measured in a certain single measurement. TRTV and CRTV collect data on the same day.
Statistic analysis includes an average value and a standard error (SEM) of tumor volume at each time point for each group. […] If there was no significant difference in F value, Dunnet (2-sided) method was applied to analysis. All data were analyzed using SPSS 17.0. P<0.05 was considered as having a significant difference.

[5] = Pharmacokinetic evaluation in mice, IV and PO; type: in vivo, Balb/c female mice; conditions: for bioavailability: plasma; for Vd: read-out: Vdss
Description: The tested compound was mixed with 10% DMSO/50% PEG400/40% water, vortexized and ultrasonic to prepare 0.2 mg/mL or 0.4 mg/ml, approximately clarified solution, which was filtered by a microporous membrane and then standby. Balb/c female mice of 18-20 g were selected and given the candidate compound solution intravenously at a dose of 1 or 2 mg/kg. The tested compound was mixed with 10% DMSO/50% PEG400/40% water, vortexized and ultrasonic to prepare 0.2 mg/mL or 1 mg/mL approximately clarified solution, which was filtered by a microporous membrane and then standby. Balb/c female mice of 18 to 20 g were selected and given orally the candidate compound solution at a dose of 2 or 10 mg/kg. Whole blood was collected for a certain period of time, and plasma was prepared. Drug concentration was analyzed by LC-MS/MS method, and pharmacokinetic parameters were calculated by Phoenix WinNonlin software (US Pharsight company).
C0: instantaneous concentration required after intravenous injection; Cmax: the highest blood concentration after administration; Tmax: time required to reach peak concentration after administration; T1/2: the time required for blood drug concentration to decrease by half; Vdss: apparent volume of distribution, which refers to the ratio constant of drug dosage to blood concentration when a drug reaches dynamic equilibrium in vivo. Cl: clearance rate, referring to drug apparent distribution volume number removed from the body per unit time; Tlast: time of last detection point: AUC0-last: an area under a drug duration curve, referring to an area surrounded by the blood drug concentration curve on the time axis; Bioavailability: a measure of the rate and extent of drug absorption into the blood circulation, which was an important index to evaluate drug absorption degree.

[6] = 40 mg/kg, PO, QD + etoposide 10 mg/kg, IP, 3-day administration, 4-day withdrawal, 22nd day
[7] = 40 mg/kg, PO, QD + etoposide 10 mg/kg, IP, 3-day administration, 4-day withdrawal, average ± SEM
[8] = female, Balb/c, PO(2 mg/kg), mouse
[9] = female, Balb/c, IV(1 mg/kg), mouse plasma
[10] = female, Balb/c, PO(2 mg/kg), mouse plasma
[11] = female, Balb/c, PO(2 mg/kg), mouse plasma, read-out: Tmax

| SMILES | IC50 [1] [nM] | IC50 [2] [nM] | IC50 [3] [nM] | Tlast ([5]; IV(1 mg/kg), mouse plasma) [h] | Tlast ([5]; PO(2 mg/kg), mouse plasma) [h] | bioavailability [5, 8] [%] | AUC(0-t) [5, 9] [µM·h] | C0 [5, 9] [nM] | clearance [5, 9] [mL/min/kg] | half-life [5, 9] [h] | Vd [5, 9] [L/kg] | AUC(0-t) [5, 10] [µM·h] | Cmax [5, 10] [nM] | half-life [5, 10] [h] | Tmax [5, 11] [h] | other results |
| --- | --- | --- | --- | --- | --- | --- | --- | --- | --- | --- | --- | --- | --- | --- | --- | --- |
| COc1ccc(C(O)c2cc(-c3ccnc4cc(N5CCOCC5)ccc34)c(F)cc2Cl)nn1 (single isomer, unassigned) [Embodiment 2] | 39 | 13 | 0.5 |  |  |  |  |  |  |  |  |  |  |  |  | Weight changes ([4]; 40 mg/kg group (+ etoposide 10 mg/kg, IP)): −16.66%; RTV (22th day) ([4]; 40 mg/kg, PO, QD + etoposide 10 mg/kg, IP, 3-day administration, 4-day withdrawal): 1.84; T/C (%) [4, 6]: 21.37%; TGI (%) [4, 6]: 89% and 88.96%; Tumor volume (mm^3) (0th day) [4, 7]: 119 ± 13 mm^3; Tumor volume (mm^3) (22th day) [4, 7]: 219 ± 44 mm^3; AUC0-last ([5]; IV(2 mg/kg), mouse plasma): 3.354 µM·h; C0 ([5]; IV(2 mg/kg), mouse plasma): 1810 nM; Cl ([5]; IV(2 mg/kg), mouse plasma): 20.3 mL/min/kg; T1/2 ([5]; IV(2 mg/kg), mouse plasma): 1.33 h; Tlast ([5]; IV(2 mg/kg), mouse plasma): 8.00 h; Vdss ([5]; IV(2 mg/kg), mouse plasma): 2.25 L/kg; Bioavailability (%) ([5]; PO(10 mg/kg), mouse): 60.8%; AUC0-last ([5]; PO(10 mg/kg), mouse plasma): 9.073 µM·h; Cmax ([5]; PO(10 mg/kg), mouse plasma): 2520 nM; T1/2 ([5]; PO(10 mg/kg), mouse plasma): 2.47 h; Tlast ([5]; PO(10 mg/kg), mouse plasma): 8.00 h; Tmax ([5]; PO(10 mg/kg), mouse plasma): 1.00 h |
| COc1ccc(C(O)c2cc(-c3ccnc4c(F)c(N5CCOCC5)cc(F)c34)c(F)cc2Cl)nn1 (single isomer, unassigned) [Embodiment 22] | 43 | 47 | 0.8 | 8.00 | 8.00 | 50 | 1.98 | 1380 | 15.4 | 1.89 | 2.32 | 1.98 | 456 | 6.25 | 1 |  |
| COc1ccc(C(O)c2cc(-c3cnnc4cc(N5CCOCC5)ccc34)c(F)cc2Cl)nn1 (stereo not drawn) [Embodiment 3] | 509 | 132 | 3.5 | 8.00 | 8.00 | 48.2 | 1.85 | 1260 | 17.9 | 1.27 | 1.42 | 1.79 | 459 | 2.83 | 0.5 |  |
